The text below walks through data of paper PMC4703104 (Journal of medicinal chemistry, 2015).

The subject of data set [1] is rat. The following applies: rat models ref 5; cited from earlier work.
The subject of data set [2] is mouse. The following applies: mouse models ref 5; cited from earlier work.
Data set [3] addresses T1, human δ receptor (hDOPr) (Homo sapiens, UniProt P41143). Description: [3H]diprenorphine radioligand. It is filed as binding.
The target of data set [4] is T1, human δ receptor (hDOPr). Description: cell-based.
Data set [5] is described as follows: Nephelometry. It is filed as physicochemical.
In data set [6] the target is δ receptor (Homo sapiens, UniProt P41143). Put plainly: PathHunter β-arrestin recruitment assay in CHO-OPRD1 cells. It is filed as cell-based. (Activated receptors often draw arrestin, which recruitment assays turn into a signal.)
[7] abbreviates: HBSS + 25 mM HEPES and 10% FBS (β-arrestin assay buffer).
Where [8] appears, read: phosphate buffered saline solution, data not shown.

T1 sequence (P41143 whole entry): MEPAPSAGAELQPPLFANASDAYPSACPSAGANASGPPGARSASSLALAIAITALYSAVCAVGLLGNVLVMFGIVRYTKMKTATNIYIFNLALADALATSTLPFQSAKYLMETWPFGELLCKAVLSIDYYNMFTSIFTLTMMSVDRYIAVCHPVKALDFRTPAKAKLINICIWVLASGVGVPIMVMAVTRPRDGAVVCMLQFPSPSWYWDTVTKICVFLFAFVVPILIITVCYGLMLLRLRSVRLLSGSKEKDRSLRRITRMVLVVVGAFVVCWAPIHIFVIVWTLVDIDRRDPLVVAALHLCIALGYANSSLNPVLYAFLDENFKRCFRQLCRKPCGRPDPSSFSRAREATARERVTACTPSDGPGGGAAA
Sequence of δ receptor (P41143 whole entry): as above

`CCN(CC)C(=O)c1ccc(C2=CC3(CCNCC3)Oc3cccc(O)c32)cc1` [ADL5859, N,N-diethyl-4-(5-hydroxyspiro-[chromene-2,4′-piperidine]-4-yl)benzamide]: the “seizures” value in data set [1] and in data set [2] was “no seizures” throughout. Compound `CN1CC[C@]2(c3cccc(O)c3)Cc3nc4ccccc4cc3C[C@H]2C1` [TAN67] showed a Ki in data set [3] of 10 nM. Further, the “affinity ratio (vehicle Ki)/(2 Ki)” value in data set [3] (effect of 2 (10 μM) on the orthosteric agonist's Ki) is listed as 3. Besides, in data set [4], the Kd is 3.98 nM. In the case of `CC1(C)CC(=O)C2=C(C1)OC1=C(C(=O)CC(C)(C)C1)C2c1ccc(OCc2ccccc2Br)cc1` [compound 10, 9-(4-((2-Bromobenzyl)oxy)phenyl)-3,3,6,6-tetramethyl-3,4,5,6,7,9-hexahydro-1H-xanthene-1,8(2H)-dione], the “concentrations showing particulate matter” value in data set [5] (setting [7]) is recorded as “above 3 μM”; in data set [5] (setting [8]), “above 1 μM”.

As to `CC1(C)CC(=O)C2=C(C1)OC1=C(C(=O)CC(C)(C)C1)C2c1ccc(OCc2ccccc2Cl)cc1` [compound 8], in data set [6] (potency ratio of PAM mode EC50 values, β-arrestin recruitment), the “selectivity μ/δ” value is over 33.

Take `CC1(C)CC(=O)C2=C(C1)OC1=C(C(=O)CC(C)(C)C1)C2c1ccc(OCc2ccc(F)cc2)cc1` [compound 7]: in data set [6] (PAM mode, EC20 of leu-enkephalin), the “PAM activity at the δ receptor” value was “robust potentiation”. `Cc1ccccc1COc1ccc(C2C3=C(CC(C)(C)CC3=O)OC3=C2C(=O)CC(C)(C)C3)cc1` [compound 2, 3,3,6,6-tetramethyl-9-(4-((2-methylbenzyl)oxy)phenyl)-3,4,5,6,7,9-hexahydro-1H-xanthene-1,8(2H)-dione]: the “concentrations showing particulate matter” value in data set [5] (setting [7]) is on record as “above 3 μM”; in data set [5] (setting [8]), “above 1 μM”.

The Ki is a measure of affinity in units of concentration, obtained from inhibition or displacement. What is called Kd is the concentration at which binding is half-saturated. Read a high Kd as weaker binding.
